In patent US20210260051A1, “COMBINATION OF EZH2 INHIBITOR AND CHECKPOINT THERAPY FOR THE TREATMENT OF CANCER” (Board of Regents, The University of Texas System, priority 2018, published 2021):

Experiments:
EZH2 [1] = assay: flow cytometry of EZH2 expression in sorted peripheral T cell subsets before and after ipilimumab; type: in vivo, human; conditions: peripheral blood, post-ipilimumab vs baseline; FIG. 7
From the text: FIG. 7: Flow cytometry analysis of EZH2 expression on CD4^+CD45RO^−CD45RA+CCR7^− (CD4 T effector, Teff), CD4^+CD25^+FoxP3^+ (T regulatory, T-reg) and CD8 T cells derived from peripheral blood mononuclear cells of patients with metastatic melanoma at baseline and after three doses of ipilimumab. Matched pair analysis of Ezh2 expression before and after ipilimumab therapy. Student t-test was used for significance (**p<0.01, *p<0.05).
Next, EZH2 expression was confirmed in peripheral CD4 T cells isolated from patients with metastatic prostate cancer at baseline and after three doses of ipilimumab (Subudhi et al., 2016). […] Next, EZH2 expression was evaluated on human CD4 effector T cells (CD4^+CD45RO^−CD45RA^+CCR7^−), regulatory T cells (CD4^+CD25^+FoxP3^+) and CD8 T cells sorted from peripheral blood of at baseline and post-ipilimumab therapy.
Tissue processing and flow cytometry. […] Staining with intracellular anti-Foxp3 (eBioscience, FJK-16 s), […] (eBioscience, PC61.5), antiKi-67 (eBioscience, SolA15), antiIFN-γ (BioLegend, XMG1.2), anti-TNF-α (BioLegend, MP6-XT22), and anti-EZH2 (Cell Signaling Technology, D2C9) were analyzed by flow cytometry according to the manufacturers’ instructions. Flow cytometry data were acquired on BD LSR II (BD Biosciences) and analyzed using FlowJo software (Tree Star, Ashland, Oreg.).

EZH2 [2] = assay: EZH2 expression in peripheral CD4 T cells of patients with metastatic melanoma (RNA sequencing); type: in vivo, human; conditions: after three doses vs baseline, FIG. 2B
From the text: (§1) FIGS. 2A-2C: Ipilimumab increases EZH2 expression in T cells. (FIG. 2A) Unsupervised hierarchical cluster analysis of RNA sequencing data from the peripheral CD4 T cells of patients with metastatic melanoma before and after 3 doses of ipilimumab therapy (week 7). (FIG. 2B) Matched pair analysis of EZH2 expression before and after ipilimumab therapy. (FIG. 2C) Ezh2 expression in peripheral CD4 T cells from patients with metastatic prostate cancer at baseline and after 3 doses of ipilimumab therapy. (2 tailed student t test was used to determine significance; **p<0.01).
T cell activation by CD28 signaling induces EZH2 expression (DuPage et al., 2015). It was postulated that exaggerated CD28 signaling due to anti-CTLA-4 therapy would increase EZH2 expression in T cells. To test this hypothesis, peripheral CD4 T cells were isolated from patients with metastatic melanoma who received ipilimumab as the first line of therapy for metastatic disease, at baseline and after three doses of ipilimumab therapy.
Patient samples. […]
RNA sequencing. […] For bioinformatics analysis, the raw reads were aligned to the mm10 reference genome using TopHat2. HTSeq count was used to count the raw reads that were uniquely mapped to each gene. DESeq2 was then applied to normalize the raw read counts and identify the differentially expressed genes between the groups. […]

[3] = patients, in combination with other immune checkpoint therapy such as Nivolumab; cited from earlier work
EZH2 [4] = assay: EZH2 expression in peripheral CD4 T cells of patients with metastatic prostate cancer; type: in vivo, human; conditions: after three doses vs baseline, FIG. 2C
From the text: as §1
Next, EZH2 expression was confirmed in peripheral CD4 T cells isolated from patients with metastatic prostate cancer at baseline and after three doses of ipilimumab (Subudhi et al., 2016). Like in patients with metastatic melanoma, increased EZH2 expression was found in CD4 T cells following ipilimumab therapy (FIG. 2C) that inversely correlated with prostate-specific antigen progression (FIG. 6). Next, EZH2 expression was evaluated on human CD4 effector T cells (CD4^+CD45RO^−CD45RA^+CCR7^−), regulatory T cells (CD4^+CD25^+FoxP3^+) and CD8 T cells sorted from peripheral blood of at baseline and post-ipilimumab therapy.
Patient samples. Metastatic melanoma samples were obtained from patients who received ipilimumab as the standard of care. […]

ipilimumab: a fully human monoclonal immunoglobulin G1 antibody that blocks cytotoxic T lymphocyte associated protein 4
EZH2 expression in CD4 effector T cells, regulatory T cells and CD8 T cells (EZH2 [1]): increased in all three T cell subtypes
EZH2 expression in peripheral CD4 T cells (EZH2 [2]): increase
side effect profile [3]: manageable side effect profile
EZH2 expression in CD4 T cells (EZH2 [4]): increased
